In patent publication US20100240603A1, “EXPRESSION INHIBITOR OF NUCLEAR TRANSCRIPTION FACTOR AP-1 AND PHARMACEUTICALS AND PRODUCTS USING THE SAME” (ARKRAY, INC., priority 2006, published 2010):
Converted amounts (≈) assume the structure as drawn.

Experiments:
[1] = tested on: nuclear transcription factor AP-1; experiment: nuclear transcription factor AP-1 SEAP reporter assay in TPA-stimulated HeLa cells; type: cell-based; details: TPA 4 μg/mL, 24 h
Method: (§1) HeLa cells were tripsinized and centrifuged at 4° C. and 1,000 rpm for 3 minutes. The collected Hela cells were seeded on a 30-mm dish so that the density was 2×10^5 cells/well, which served as a test plate. With the test plate being placed at 37° C. for 12 hours in the presence of 5% CO2, the cells were cultured and were then transformed. For the transformation, two types of vectors were transfected into the aforementioned cells using a transformation reagent (trade name: Effectene Transfection Reagent, QIAGEN). The vectors used herein were pAP-1 (PMA)-SEAP (trade name) (CLONTECH) (0.4 μg) and pLuc-control (trade name) (CLONTECH) (0.02 μg). The cells transfected with both of the vectors were cultured at 37° C. for 16 hours in the presence of 5% CO2, and then the cultured cells were detached from the aforementioned test plate using trypsin. The detached cells were dispensed into a 96-well plate so that 0.2×10^4 cells were contained in each well. The cells thus dispensed were cultured for two hours. […] The medium thus collected was evaluated for the secreated alkaline phosphatase (SEAP) activity based on the activity of the nuclear transcription factor AP-1 contained in the medium, using a kit (trade name: Great EscAPe SEAP kit, CLONTECK). […]

NF-κB = NF-κB SEAP reporter assay in TNF-alpha-stimulated HeLa cells; type: cell-based; details: TNF-alpha 40 ng/mL, 24 h
Method: as §1, with “pNF-κB-SEAP” for “pAP-1 (PMA)-SEAP”, “NF-κB” for “the nuclear transcription factor AP-1”, “medium” for “medium,”

CC(O)(CC(=O)O)CC(=O)OCC1OC(Oc2cc(O)c3c(=O)cc(-c4ccc(O)cc4)oc3c2)C(O)C(O)C1O (stereo not shown) [chamaemeloside, apigenin 7-glucoside-6″-(3′″-hydroxy-3′″-methyl-glutarate)]
expression of the nuclear transcription factor AP-1 (FIG. 2) ([1]; HeLa cells, 10, 5.0, 2.5, 1.0 μg/mL): suppressed (inhibited) in a concentration-dependent manner
IC50 ([1]; Homo sapiens, HeLa cells transfected with pAP-1 (PMA)-SEAP and pLuc-control, corrected by luciferase activity, read-out: IC50 of inhibition of nuclear transcription factor AP-1 expression (SEAP activity)): 5 µg/mL (≈ 8.67 µM)
expression of NF-κB (FIG. 3) (NF-κB; HeLa cells): inhibited the expression of NF-κB in a concentration-dependent manner
IC50 (NF-κB; Homo sapiens, HeLa cells transfected with pNF-κB-SEAP and pLuc-control, corrected by luciferase activity, read-out: IC50 of inhibition of NF-κB expression (SEAP activity)): 80 µg/mL (≈ 139 µM)
